PubChem BioAssay AID977607 (Broad Institute, 2014)
The source made the active and inactive calls.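 How the source made its calls: active means curve reaches 40% activation over neutral controls at an AC40 no higher than the top valid tested concentration; inconclusive means no clear call, values can overlap the other calls; inactive means signal moving opposite to the expected increase, and the rest.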

System: INS-1E GLuc insulin secretion reporter, luminescence, 2-3 h
Experiment: activators of glucose-dependent insulin secretion, dose response, cell-based, INS-1E, Gaussia luciferase, luminescence, cherry-pick, set 2 (AID 977607)

Row | SMILES | AC40
1 | CC(=O)Oc1ccc(Cl)cc1/C=C/c1ccc2ccccc2n1 | 24.9 µM
2 | O=C(Nc1ccc2c(c1)OCO2)c1sc2cc(Cl)ccc2c1Cl | 12 µM
3 | C/C=C/c1ccc(C2[C@@H]3CN(C(=O)Nc4ccc(C(F)(F)F)cc4)C[C@H]2N3)cc1 (stereo partly drawn) | 12.5 µM
4 | NC(CCc1ccccc1)c1csc(Nc2ccc(C(F)(F)F)cn2)n1 (stereo not drawn) | 10.4 µM
5 | Cc1cc(OCCCN2CCC(C(O)(c3ccccc3)c3ccccc3)CC2)ccc1Br | 4.77 µM
6 | OC(c1ccccc1)(c1ccccc1)C1CCN(CCCOc2ccc(-c3ccsc3)cc2)CC1 | 8.81 µM
7 | Cc1ccc(C)c(OCC(=O)N/N=C/c2c(C)nn(-c3ccccc3)c2Cl)c1C | 3.2 µM
8 | CCCc1cc(-c2nc(-c3ccc(C)cc3)cs2)ccn1 | 10.2 µM
9 | COc1cccc(OCc2nc3c4cnn(-c5ccccc5)c4ncn3n2)c1 | 8.5 µM
10 | CCOc1cccc(-c2csc(C3COc4ccccc4O3)n2)c1 (stereo not drawn) | 3.7 µM
11 | c1ccc(Cn2nnc3c(N4CCc5ccccc54)ncnc32)cc1 | 5.06 µM
12 | Cc1ccc(-c2n[nH]c(=S)n2/N=C/c2c(C)nn(-c3ccccc3)c2C)cc1 | 11.2 µM
13 | COc1ccc(C(O)c2nc(-c3ccc(OC)c(OC)c3)cs2)cc1 (stereo not drawn) | > 35 µM (inactive)
14 | COc1ccc(C#Cc2ccc([C@@H]3[C@@H](CO)N4CCCCN(Cc5ccccc5F)C[C@@H]34)cc2)cc1 | 14.3 µM
15 | Cc1ccc(NC(=O)c2ccc(COc3ccc4c(c3)CCC4)cc2)c(C)c1 | 1.27 µM
16 | CN(C)Cc1ccccc1Sc1ccc2c(c1)CCCC2 | 16.6 µM
17 | COc1ccc(/C=N/NC(=O)Cn2nnc3ccccc32)cc1OC | 24.4 µM
18 | CNC[C@H](CC1CCCCC1)NC[C@H](Cc1ccccc1)NCCC12CC3CC(CC(C3)C1)C2 | 8.32 µM
19 | COc1ccccc1C(=O)Nc1c2c(nn1-c1cccc(C)c1C)CS(=O)(=O)C2 | 7.77 µM
20 | C=CCn1c(-c2csc(-c3ccc(OC)c(OC)c3)n2)n[nH]c1=S | 1.01 µM
21 | CCOc1ncccc1C(=O)Nc1ccc(S(=O)(=O)Nc2nc(C)cc(C)n2)cc1 | 33.2 µM
22 | O=c1[nH]cnc2nc(-c3ccc(N(CCCl)CCCl)cc3)[nH]c12 | 5.89 µM

Row | SMILES | AC40
23 | COc1ccc(C2CC(=O)Nc3sc(=N)c4c(N)c(C#N)c(N)nc4c32)cc1OC (stereo not drawn) | 6.1 µM
24 | C=CCNC(=S)N/N=C/c1ccc(-c2cc(Cl)ccc2Cl)o1 | 5.15 µM
25 | COC(=O)C1=C(C)N(Cc2cccc(C(F)(F)F)c2)C(=NCc2ccc(OC)cc2)NC1c1cccc(F)c1 (stereo not drawn) | 10.8 µM
26 | Cc1cccc(Cn2ccc(-c3ccc(Cl)cc3)c(C#N)c2=O)c1 | 7 µM
27 | Cc1ccccc1-c1ccc(C2[C@@H]3CN(C(=O)Nc4cccc(F)c4)C[C@H]2N3)cc1 (stereo partly drawn) | 8.64 µM
28 | CCOC(=O)c1ccc(Nc2ncnc3ccc(C)cc23)cc1 | 12.4 µM
29 | c1ccc(-c2nnc3n2-c2ccccc2SC3)cc1 | > 35 µM (inactive)
30 | CS(=O)(=O)c1cnc(-c2ccccc2)nc1Oc1ccc(F)cc1 | 15.1 µM
31 | COc1cc2sc3ccc(C#Cc4ccc(N)cc4)cc3c(=O)c2cc1OC | 33.4 µM
32 | CC1(Cc2ccc(C(F)(F)F)o2)C(=O)Nc2ccc(-c3cccc(C(F)(F)F)c3)cc21 (stereo not drawn) | 8.84 µM
33 | CCn1cc(S(=O)(=O)NCCc2ccc(OC)c(OC)c2)cn1 | 3.87 µM
34 | CCOC(=O)c1oc2ccccc2c1NC(=O)c1cccs1 | 14 µM
35 | Cc1ccc(CN(C(=O)c2cccs2)C2CCS(=O)(=O)C2)cc1 (stereo not drawn) | 19.7 µM
36 | NC1=NC[C@H](CC2CCCCC2)N1CCc1cc(C(F)(F)F)cc(C(F)(F)F)c1 | 16.6 µM
37 | CCOc1ncccc1C(=O)Nc1ccccc1F | > 35 µM (inactive)
38 | OC(CNCCc1ccc(C(F)(F)F)cc1)COc1cccc2ccccc12 (stereo not drawn) | 4.54 µM
39 | CCCNC(=O)c1nnsc1S(=O)c1ccc(Cl)cc1 (stereo not drawn) | 1.06 µM
40 | N#Cc1c(-c2cccc(Br)c2)cc(-c2cccnc2)nc1N | 5.82 µM
41 | COc1ccc(C(=O)Cc2ccc3c(c2)OCO3)c(O)c1 | > 35 µM (inactive)
42 | CCCCCCn1c(N(CC)CC)nc2c1c(=O)[nH]c(=O)n2C | 23.8 µM
43 | COc1ccc(C(=O)C2CCCN(C(=O)c3n[nH]c4c3CCCC4)C2)cc1OC (stereo not drawn) | 3.89 µM
